Measured values reported in US8952024B2, “Herbicidal pyrimidone derivatives” (E I du Pont de Nemours and Company, priority 2009, dated 2015).

Tests used:
Test in all cases: Test B pre-/postemergence plant response
Assay type in all cases: in vivo
[1] = test system: Italian ryegrass (Lolium multiflorum)
Outline: (§1)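 Steps: sow seed in loam–sand soil and spray preemergence, or grow plants in peat-based medium to 1–4 leaves (2–18 cm) and spray postemergence; formulation is non-phytotoxic solvent plus surfactant; hold in greenhouse 13–15 days; score visually vs controls, 0 = no effect, 100 = complete control.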

[2] = test system: Surinam grass (Brachiaria decumbens)
Outline: as §1

[3] = test system: bermudagrass (Cynodon dactylon)
Outline: as §1

[4] = test system: blackgrass (Alopecurus myosuroides)
Outline: as §1

corn (Zea mays) = test system: corn (Zea mays)
Outline: as §1

[5] = test system: downy bromegrass (Bromus tectorum)
Outline: as §1

[6] = test system: giant foxtail (Setaria faberii)
Outline: as §1

[7] = test system: goosegrass (Eleusine indica)
Outline: as §1

[8] = test system: green foxtail (Setaria viridis)
Outline: as §1

[9] = test system: johnsongrass (Sorghum halepense)
Outline: as §1

kochia (Kochia scoparia) = conditions: Preemergence
Outline: as §1

[10] = test system: lambsquarters (Chenopodium album)
Outline: as §1

[11] = test system: large crabgrass (Digitaria sanguinalis)
Outline: as §1

[12] = test system: ragweed (common ragweed, Ambrosia elatior)
Outline: as §1

[13] = test system: velvetleaf (Abutilon theophrasti)
Outline: as §1

[14] = test system: woolly cupgrass (Eriochloa villosa)
Outline: as §1

[15] = test system: yellow nutsedge (Cyperus esculentus)
Outline: as §1

[16] = 250 g ai/ha, Preemergence, 0 to 100 scale
[17] = Postemergence, 62 g ai/ha, scale 0 (no effect) to 100 (complete control), 13 to 15 days
[18] = Postemergence, 125 g ai/ha, visual rating after 13 to 15 days, scale 0 (no effect) to 100 (complete control)
[19] = Postemergence, 250 g ai/ha, scale 0 to 100
[20] = Preemergence, 31 g ai/ha, scale 0 to 100 (0 no effect, 100 complete control)
[21] = Preemergence, 62 g ai/ha, scale 0 to 100, 0 no effect, 100 complete control
[22] = Preemergence, 125 g ai/ha, 0 to 100 scale
[23] = Postemergence, 31 g ai/ha, scale 0 to 100 (0 no effect, 100 complete control)

Question: What does the source list for `Cc1ccc(C)c(-n2c(-c3ccccc3)ncc(C(=O)C3=C(O)CCCC3=O)c2=O)c1` [Compound 29]?
Answer: Plant response rating, Ryegrass, Italian [1, 16]: 40; Plant response rating, Ryegrass, Italian [1, 17]: 20; Plant response rating, Ryegrass, Italian [1, 18]: 40; Ryegrass, Italian plant response rating [1, 19]: 45; Plant response rating, Ryegrass, Italian [1, 20]: 0; Plant response rating, Ryegrass, Italian [1, 21]: 0; Ryegrass, Italian plant response rating [1, 22]: 10; Plant response rating, Surinam Grass [2, 16]: 95; Plant response rating, Surinam Grass [2, 17]: 50; Plant response rating, Surinam Grass [2, 18]: 70; Surinam Grass plant response rating [2, 19]: 85; Plant response rating, Surinam Grass [2, 20]: 0; Plant response rating, Surinam Grass [2, 21]: 20; Surinam Grass plant response rating [2, 22]: 90; Plant response rating, Bermudagrass [3, 16]: 100; Plant response rating, Bermudagrass [3, 23]: 85; Plant response rating, Bermudagrass [3, 17]: 90; Plant response rating, Bermudagrass [3, 18]: 90; Bermudagrass plant response rating [3, 19]: 100; Plant response rating, Bermudagrass [3, 20]: 98; Plant response rating, Bermudagrass [3, 21]: 100; Bermudagrass plant response rating [3, 22]: 100; Plant response rating, Blackgrass [4, 16]: 50; Plant response rating, Blackgrass [4, 23]: 10; Plant response rating, Blackgrass [4, 17]: 20; Plant response rating, Blackgrass [4, 18]: 40; Blackgrass plant response rating [4, 19]: 50; Plant response rating, Blackgrass [4, 20]: 5; Plant response rating, Blackgrass [4, 21]: 5; Blackgrass plant response rating [4, 22]: 50; Plant response rating, Corn (corn (Zea mays); [16]): 0; Plant response rating, Corn (corn (Zea mays); [23]): 20; Plant response rating, Corn (corn (Zea mays); [17]): 35; Plant response rating, Corn (corn (Zea mays); [18]): 50; Corn plant response rating (corn (Zea mays); [19]): 60; Plant response rating, Corn (corn (Zea mays); [20]): 0; Plant response rating, Corn (corn (Zea mays); [21]): 0; Corn plant response rating (corn (Zea mays); [22]): 0; Plant response rating, Bromegrass, Downy [5, 16]: 5; Plant response rating, Bromegrass, Downy [5, 23]: 5; Plant response rating, Bromegrass, Downy [5, 17]: 10; Plant response rating, Bromegrass, Downy [5, 18]: 40; Bromegrass, Downy plant response rating [5, 19]: 45; Plant response rating, Bromegrass, Downy [5, 20]: 0; Plant response rating, Bromegrass, Downy [5, 21]: 0; Bromegrass, Downy plant response rating [5, 22]: 0; Plant response rating, Foxtail, Giant [6, 16]: 100; Plant response rating, Foxtail, Giant [6, 23]: 80; Plant response rating, Foxtail, Giant [6, 17]: 90; Plant response rating, Foxtail, Giant [6, 18]: 90; Foxtail, Giant plant response rating [6, 19]: 95; Plant response rating, Foxtail, Giant [6, 20]: 10; Plant response rating, Foxtail, Giant [6, 21]: 50; Foxtail, Giant plant response rating [6, 22]: 100; Plant response rating, Goosegrass [7, 16]: 100; Plant response rating, Goosegrass [7, 17]: 85; Plant response rating, Goosegrass [7, 18]: 85; Goosegrass plant response rating [7, 19]: 95; Plant response rating, Goosegrass [7, 20]: 95; Goosegrass plant response rating [7, 22]: 100; Plant response rating, Foxtail, Green [8, 16]: 100; Plant response rating, Foxtail, Green [8, 23]: 60; Plant response rating, Foxtail, Green [8, 17]: 75; Plant response rating, Foxtail, Green [8, 18]: 75; Foxtail, Green plant response rating [8, 19]: 90; Plant response rating, Foxtail, Green [8, 20]: 0; Plant response rating, Foxtail, Green [8, 21]: 40; Foxtail, Green plant response rating [8, 22]: 100; Plant response rating, Johnsongrass [9, 16]: 90; Plant response rating, Johnsongrass [9, 17]: 20; Plant response rating, Johnsongrass [9, 18]: 40; Johnsongrass plant response rating [9, 19]: 45; Plant response rating, Johnsongrass [9, 20]: 0; Plant response rating, Johnsongrass [9, 21]: 5; Johnsongrass plant response rating [9, 22]: 30; Plant response rating, Kochia (kochia (Kochia scoparia); 250 g ai/ha, 0 to 100 scale): 100; Plant response rating, Kochia (kochia (Kochia scoparia); 31 g ai/ha, scale 0 to 100 (0 no effect, 100 complete control)): 98; Plant response rating, Kochia (kochia (Kochia scoparia); 62 g ai/ha, scale 0 to 100, 0 no effect, 100 complete control): 100; Kochia plant response rating (kochia (Kochia scoparia); 125 g ai/ha, 0 to 100 scale): 100; Plant response rating, Lambsquarters [10, 16]: 100; Plant response rating, Lambsquarters [10, 17]: 85; Plant response rating, Lambsquarters [10, 18]: 90; Lambsquarters plant response rating [10, 19]: 98; Plant response rating, Lambsquarters [10, 20]: 100; Plant response rating, Lambsquarters [10, 21]: 100; Lambsquarters plant response rating [10, 22]: 100; Plant response rating, Crabgrass, Large [11, 16]: 100; Plant response rating, Crabgrass, Large [11, 23]: 45; Plant response rating, Crabgrass, Large [11, 17]: 50; Plant response rating, Crabgrass, Large [11, 18]: 55; Crabgrass, Large plant response rating [11, 19]: 80; Plant response rating, Crabgrass, Large [11, 20]: 98; Plant response rating, Crabgrass, Large [11, 21]: 100; Crabgrass, Large plant response rating [11, 22]: 100; Plant response rating, Ragweed [12, 16]: 100; Plant response rating, Ragweed [12, 17]: 85; Plant response rating, Ragweed [12, 18]: 100; Ragweed plant response rating [12, 19]: 100; Plant response rating, Ragweed [12, 20]: 80; Plant response rating, Ragweed [12, 21]: 90; Ragweed plant response rating [12, 22]: 100; Plant response rating, Velvetleaf [13, 16]: 100; Plant response rating, Velvetleaf [13, 17]: 55; Plant response rating, Velvetleaf [13, 18]: 80; Velvetleaf plant response rating [13, 19]: 98; Plant response rating, Velvetleaf [13, 20]: 10; Plant response rating, Velvetleaf [13, 21]: 90; Velvetleaf plant response rating [13, 22]: 100; Plant response rating, Cupgrass, Woolly [14, 16]: 90; Plant response rating, Cupgrass, Woolly [14, 23]: 80; Plant response rating, Cupgrass, Woolly [14, 17]: 85; Plant response rating, Cupgrass, Woolly [14, 18]: 85; Cupgrass, Woolly plant response rating [14, 19]: 85; Plant response rating, Cupgrass, Woolly [14, 20]: 5; Plant response rating, Cupgrass, Woolly [14, 21]: 10; Cupgrass, Woolly plant response rating [14, 22]: 55; Plant response rating, Nutsedge, Yellow [15, 16]: 85; Plant response rating, Nutsedge, Yellow [15, 17]: 50; Plant response rating, Nutsedge, Yellow [15, 18]: 70; Nutsedge, Yellow plant response rating [15, 19]: 70; Plant response rating, Nutsedge, Yellow [15, 20]: 0; Plant response rating, Nutsedge, Yellow [15, 21]: 30; Nutsedge, Yellow plant response rating [15, 22]: 60
